Earlier results as cited in US20240156891A1, “EXTRACTS OF SALVIA MILTIORRHIZA AND/OR PONCIRUS TRIFOLIATA FOR INHIBITING BODY WEIGHT GAIN” (Taipei Medical University, priority 2022, published 2024).

Details: typical values of solvents

Row | Structure (SMILES) | log Kow
1 | CC(C)=O [acetone] | −0.24
2 | CCOC(C)=O [ethyl acetate] | 0.66~0.73
3 | CO [methanol] | −0.82~−0.66
4 | CCCCCC [n-hexane] | 3.17~3.94
